Reference: patent publication US20230148450A9, “BICYCLIC HETEROARYL COMPOUNDS AND USES THEREOF” (Revolution Medicines, Inc., priority 2019, published 2023)
pIC50, pKd: −log10 of the molar value. Read-outs that look alike come from different tables or passages of the source.

How the values were obtained:
[1] = tested on: cellular pERK in PC-9 cells (EGFR Ex19Del); test: Potency Assay: pERK; format: cell-based; settings: Homo sapiens, read-out: SOS1 pERK IC50
Source text: The purpose of this assay is to measure the ability of test compounds to inhibit SOS1 function in cells. SOS1 activates RAS proteins by catalyzing the conversion of […] to […] in response to receptor tyrosine kinase activation. Activation of RAS induces a sequence of cellular signaling events that results in increased phosphorylation of ERK at […] (pERK). The procedure described below measures the level of cellular pERK in response to test compounds in PC-9 cells (EGFR Ex[…]). PC-9 cells were grown and maintained using media and procedures recommended by the ATCC. On the day prior to compound addition, cells were plated in 384-well cell culture plates (40 μL/well) and grown overnight in a 37° C., 5% CO2 incubator. Test compounds were prepared in 10, 3-fold dilutions in DMSO, with a top concentration of 10 mM. On the day of the assay, 40 nL of test compound was added to each well of cell culture plate using an Echo550 liquid handler (LabCyte). Concentrations of test compound were tested in duplicate with highest test concentration being 10 μM. After compound addition, cells were incubated for 1 hour at 37° C., 5% CO2. Following incubation, culture medium was removed and cells were washed once with phosphate buffered saline. Cellular pERK level was determined using the AlphaLISA SureFire Ultra p-ERK1/2 Assay Kit (PerkinElmer). Cells were lysed in 25 μL lysis buffer, with shaking at 600 RPM at room temperature for 15 minutes. Lysate (10 μL) was transferred to a 384-well Opti-plate (PerkinElmer) and 5 μL acceptor mix was added. The plate was centrifuged at 1000 RPM for 1 minute, and incubated in the dark for 2 hours. Following this incubation, 5 μL of donor mix was added, the plate was sealed and centrifuged at 1000 RPM for 1 minute, and the mixture was incubated for 2 hours at room temperature. Signal was read on an Envision plate reader (PerkinElmer) using standard AlphaLISA settings. Analysis of raw data was carried out in Excel (Microsoft) and Prism (GraphPad). Signal was plotted vs. the decadal logarithm of compound concentration, and IC50 was determined by fitting a 4-parameter sigmoidal concentration response model.

[2] = molecular target: T1, SOS1 nucleotide exchange of KRAS (catalytic domain of SOS1, residues 564-1049; wild-type KRAS) (Homo sapiens, UniProt Q07889); test: Mode of Action Assay: Inhibition of SOS1 Nucleotide Exchange Activity (TR-FRET); format: biochemical; settings: TR-FRET signal
T1 construct: tagless catalytic domain of SOS1 (residues 564-1049)
T1 sequence (Q07889 564-1049): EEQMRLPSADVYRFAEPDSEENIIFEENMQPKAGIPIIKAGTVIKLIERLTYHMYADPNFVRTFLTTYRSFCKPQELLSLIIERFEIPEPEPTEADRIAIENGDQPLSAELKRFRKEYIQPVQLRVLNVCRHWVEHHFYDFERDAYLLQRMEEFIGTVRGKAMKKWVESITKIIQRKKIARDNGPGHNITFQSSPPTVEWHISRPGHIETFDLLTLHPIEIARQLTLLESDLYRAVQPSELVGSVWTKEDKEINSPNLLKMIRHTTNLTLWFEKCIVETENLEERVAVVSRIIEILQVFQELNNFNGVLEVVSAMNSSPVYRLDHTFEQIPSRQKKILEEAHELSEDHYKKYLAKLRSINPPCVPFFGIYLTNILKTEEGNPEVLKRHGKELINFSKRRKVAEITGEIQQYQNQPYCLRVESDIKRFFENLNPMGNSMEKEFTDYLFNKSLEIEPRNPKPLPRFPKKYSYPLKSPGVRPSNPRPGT
Protocol: The purpose of this assay was to characterize the inhibitory activity of compounds on SOS1 nucleotide exchange of KRAS. Data was reported as IC50 values based on the TR-FRET signal.
Note—the following protocol describes a procedure for monitoring the inhibition of SOS1 nucleotide exchange activity of wild-type KRAS in response to a compound of the invention. Other KRAS mutants and RAS isoforms maybe employed.
In assay buffer containing 20 mM HEPES, pH 7.5, 150 mM NaCl, 5 mM MgCl2, 0.05% Tween-20, 0.1% BSA, 1 mM DTT, concentration series of test compounds were generated spanning 100 μM to 1.7 nM over eleven 3-fold serial dilutions in a 384-well assay plate at a volume of 20 μL. The purified tagless catalytic domain of SOS1 (residues 564-1049) was first diluted in assay buffer at a concentration of 100 nM, and then 20 μL of the SOS1 containing solution was directly dispensed into compound plates. The SOS1/compound mixture was incubated at room temperature with constant mixing on an orbital shaker for 20 minutes to allow the reaction to reach equilibrium. A KRAS mixture was prepared by diluting 66.7 nM avi-tagged KRAS (residue 1-169), 3.33 nM Streptavidin-Tb and 333 nM EDA-GTP-DY-647P1 in assay buffer. This mixture was prepared immediately before addition to the SOS1/compound mixture to prevent intrinsic nucleotide exchange. Then 5 μL of the pre-incubated SOS1/compound mixture and 7.5 μL of the KRAS mixture were added sequentially in a 384-well low volume black round bottom plate and incubated at room temperature with constant shaking for 30 minutes. Time-resolved fluorescence was measured on a PerkinElmer Envision plate reader. DMSO and 10 μM of compound (i) were used as negative and positive controls, respectively.
Three replicates were performed for each compound. Data were normalized by the following: (Positive control—Sample signal)/(Positive control—negative control)*100. The data were fit using a four-parameter logistic fit.

[3] = molecular target: T2, SOS1 catalytic domain (residues 564-1049) (Homo sapiens, UniProt Q07889); test: Binding affinity to SOS1 using Surface Plasmon Resonance (SPR); settings: avi-tagged SOS1 catalytic domain immobilized on sensor chip; read-out: SOS1 SPR Equilibrium Kd
T2 construct: SOS1 catalytic domain (residues 564-1049) immobilized on a sensor chip
T2 sequence (Q07889 564-1049): T1 sequence (Q07889 564-1049)
Source text: Potency Assay: Measurement of the Binding Affinity of Compounds of the Invention to SOS! using Surface Plasmon Resonance (SPR)
The purpose of the SPR assay was to measure the direct binding of compounds to SOS1 catalytic domain (residues 564-1049) immobilized on a sensor chip. Data was reported as equilibrium dissociation constant (Kd) values.
Using a GE Biacore 8K SPR instrument, avi-tagged SOS1 catalytic domain protein was immobilized to a level of approximately 6000 response units (RU) on a streptavidin-coated SPR sensor chip in assay buffer containing 0.01 M HEPES, 0.15 M NaCl and 0.05% v/v Surfactant P20. In assay buffer containing 2% DMSO, concentration series of test compounds were generated spanning 5 μM to 4.9 nM over ten 2-fold dilutions. For each test compound, a separate 0 μM sample was generated for use during subsequent double reference subtraction. Serially for each test compound, individual dilution samples were flowed over the immobilized SOS1 protein at a flow rate of 50 μL/minute to monitor the association with SOS1. Dissociation of bound test compound from the SOS1 protein was immediately monitored by flowing assay buffer over the sensor surface and monitoring the decrease in binding signal back to the baseline level seen in the absence of compound. This was repeated for all compound dilutions in each series. The binding level response for each test compound concentration was noted immediately prior to the end of the association phase, and a secondary plot generated showing binding response level versus test compound concentration generated for each compound dilution series.

[4] = PC-9 cells (EGFR Ex19Del), 1 hour incubation, AlphaLISA p-ERK1/2

With `C[C@@H](Nc1nc(Cl)nn2cc(C(=O)N3CCN(C)CC3)cc12)c1cccc(C(F)(F)F)c1` [Example 95] the pIC50 [1, 4] was under 6.00 and the pIC50 [2] was under 6.00.

Work on `C[C@@H](Nc1nc(Cl)nn2cc(C(=O)N3CC4(CN(C)C4)C3)cc12)c1cccc(C(F)F)c1F` [Example 99] yielded a pKd [3] of at least 6.40, a pIC50 [1, 4] of over 6.00 and a pIC50 [2] of over 6.00.

`C[C@@H](Nc1nc(Cl)nn2cc(C(=O)N3CC4(COC4)C3)cc12)c1cccc(C(F)(F)F)c1` [Example 96] was tested, and the pIC50 [1, 4] was over 6.00 and the pIC50 [2] was under 6.00.

`Cc1nc(N[C@H](C)c2cc(N)cc(C(F)(F)F)c2)c2cc([C@]3(O)CC[C@H](C(=O)N(C)C)CC3)cn2n1` [Example 66, 4-[4-[[(1R)-1-[3-amino-5-(trifluoromethyl)phenyl]ethyl]amino]-2-methyl-pyrrolo[2,1-f][1,2,4]triazin-6-yl]-4-hydroxy-N,N-dimethylcyclohexanecarboxamide] was tested, and the pKd [3] was at least 6.40 and the pIC50 [1, 4] was under 6.00.

`C[C@@H](Nc1ncnc2c1cc(C1CCNCC1)n2C)c1cc(N)cc(C(F)(F)F)c1` [Example 38, N-[(1R)-1-[3-amino-5-(trifluoromethyl)phenyl]ethyl]-7-methyl-6-(4-piperidyl)pyrrolo[2,3-d]pyrimidin-4-amine] gave a pIC50 [1, 4] of under 6.00.

`C[C@@H](Nc1cc(Cl)nc2nc(C(=O)N3CCOCC3)cn12)c1cc(N)cc(C(F)(F)F)c1` [Example 48, [5-[[(1R)-1-[3-amino-5-(trifluoromethyl)phenyl]ethyl]amino]-7-chloro-imidazo[1,2-a]pyrimidin-2-yl]-morpholino-methanone] was tested, and the pKd [3] was under 6.40 and the pIC50 ([1]; PC-9, 1 h) was over 6.00.

Work on `C[C@@H](Nc1nc(Cl)nn2cc(C(=O)N3CCN(C)CC3)cc12)c1cccc(C(F)F)c1F` [Example 98] yielded a pIC50 [1, 4] of over 6.00 and a pIC50 [2] of over 6.00.

Compound `Cc1cn2nc(C(=O)N3CC4CCC(C3)N4C)cc2c(N[C@H](C)c2cc(N)cc(C(F)(F)F)c2)n1` [Example 78] has a pIC50 [1, 4] of over 6.00 and a pIC50 [2] of over 6.00.

With `C[C@@H](Nc1ncnc2cc(C3=CCNCC3)sc12)c1cc(N)cc(C(F)(F)F)c1` [Example 49, N-[(1R)-1-[3-amino-5-(trifluoromethyl)phenyl]ethyl]-6-(1,2,3,6-tetrahydropyridin-4-yl)thieno[3,2-d]pyrimidin-4-amine] the pIC50 [1, 4] was under 6.00 and the pIC50 [2] was under 6.00.

For `C[C@@H](Nc1nc(Cl)cn2cc(C(=O)N3CCOCC3)cc12)c1cc(N)cc(C(F)(F)F)c1` [Example 102, N-[(1R)-1-[3-amino-5-(trifluoromethyl)phenyl]ethyl]-3-chloro-7-(morpholine-4-carbonyl)pyrrolo [1,2-a]pyrazin-1-amine], the pIC50 [1, 4] was under 6.00 and the pIC50 [2] was under 6.00.

In the case of `CNCc1cc2c(N[C@H](C)c3cc(N)cc(C(F)(F)F)c3)nc(C)nn2c1` [Example 28, N-[(1R)-1-[3-amino-5-(trifluoromethyl)phenyl]ethyl]-2-methyl-6-(methylaminomethyl)pyrrolo[2,1-f][1,2,4]triazin-4-amine], the pKd [3] was under 6.40 and the pIC50 [1, 4] was over 6.00.

Work on `C[C@@H](Nc1nccc2sc(C3=CCNCC3)cc12)c1cc(N)cc(C(F)(F)F)c1` [Example 56, N-[(1R)-1-[3-amino-5-(trifluoromethyl)phenyl]ethyl]-2-(1,2,3,6-tetrahydropyridin-4-yl)thieno[3,2-c]pyridin-4-amine] yielded a pIC50 [1, 4] of under 6.00 and a pIC50 [2] of under 6.00.

For `Cc1cn2nc(C(=O)N3CCN(C)CC3)cc2c(N[C@H](C)c2cccc(C(F)(F)F)c2)n1` [Example 61], the pIC50 [1, 4] was under 6.00 and the pIC50 [2] was under 6.00.

In the case of `C[C@@H](Nc1nccc2nc(C(=O)N3CC4(CN(CC(F)F)C4)C3)cn12)c1cccc(C(F)F)c1F` [Example 93], the pKd [3] was at least 6.40 and the pIC50 [2] was over 6.00.

Work on `C[C@@H](Nc1nc(Cl)nn2cc(C(=O)N3CCN(C)CC3)cc12)c1cc(N)cc(C(F)(F)F)c1` [Example 94, N-[(1R)-1-[3-amino-5-(trifluoromethyl)-phenyl]ethyl]-2-chloro-6-(4-methylpiperazine-1-carbonyl)pyrrolo[2,1-f][1,2,4]triazin-4-amine] yielded a pIC50 [1, 4] of over 6.00 and a pIC50 [2] of over 6.00.

`Cc1cn2nc(C(=O)N3CCOCC3)cc2c(N[C@H](C)c2cc(N)cc(C(F)(F)F)c2)n1` [Example 58., 60.] gave a pKd [3] of under 6.40 and a pIC50 [2] of under 6.00.

Compound `Cc1nc(N[C@H](C)c2cc(N)cc(C(F)(F)F)c2)c2cc(-c3ccnc(N4CCOCC4)c3)cn2n1` [Example 63, N-[(1R)-1-[3-amino-5-(trifluoromethyl)phenyl]ethyl]-2-methyl-6-[2-(morpholin-4-yl)pyridin-4-yl]pyrrolo[2,1-f][1,2,4]triazin-4-amine] has a pKd [3] of at least 6.40 and a pIC50 [2] of under 6.00.

`C[C@@H](Nc1nc(Cl)cc2nc(C(=O)N3CCOCC3)cn12)c1cccc(C(F)(F)CO)c1` [Example 86] showed a pKd [3] of at least 6.40 and a pIC50 [2] of over 6.00.

With `C[C@@H](Nc1nc(Cl)nn2cc(C(=O)N3CCOCC3)cc12)c1cc(N)cc(C(F)(F)F)c1` [Example 68] the pIC50 [1, 4] was over 6.00.

With `C[C@@H](Nc1nccc2nc(C(=O)N3CC4(CN(CCF)C4)C3)cn12)c1cccc(C(F)F)c1F` [Example 92] the pKd [3] was at least 6.40 and the pIC50 [2] was over 6.00.

`COc1cc2c(N[C@H](C)c3cc(N)cc(C(F)(F)F)c3)nc(C)nn2c1` [Example 30, N-[(1R)-1-[3-amino-5-(trifluoromethyl)phenyl]ethyl]-6-methoxy-2-methyl-pyrrolo[2,1-f]-[1,2,4]triazin-4-amine] gave a pKd [3] of under 6.40 and a pIC50 [1, 4] of under 6.00.
